Reference: patent US9296776B2, “Substituted nucleoside derivatives with antiviral and antimicrobial properties” (Eastern Virginia Medical School, priority 2007, dated 2016)
≈ marks a conversion by molar mass, not a printed value.

Experiments:
Format in all cases: cell-based
[1] = system: Cell-associated HIV-1, SupT1 (IIIB); test: Single-round infection assay, cell-associated virus SupT1 (IIIB); settings: for IC50 Cell-Associated Virus SupT1 (IIIB) / IC50: Table 1, 2 h incubation, wash, 48 h culture; for IC50: Human immunodeficiency virus 1, IIIB, SUP-T1, read-out: IC50 Cell-Associated Virus SupT1 (IIIB)
[2] = system: HIV-1 IIIB (cell-free virus); test: microbe, parasite or virus in culture; settings: for IC50 Cell-Free Virus IIIB / IC50: Table 1; for IC50 Cell-Free Virus IIIB / IC50 / EC50 Cell-free HIV-1 (IIIB) / EC50: 2 h incubation, wash, 48 h culture; for IC50: Human immunodeficiency virus 1, IIIB, read-out: IC50 Cell-Free Virus IIIB; for EC50 Cell-free HIV-1 (IIIB) / EC50: Table 8; for EC50: read-out: EC50 Cell-free HIV-1 (IIIB)
[3] = system: HIV-1 BaL (cell-free virus); test: Single-round infection assay, cell-free virus BaL; settings: for IC50 Cell-Free Virus BaL / IC50: Table 1, 2 h incubation, wash, 48 h culture; for IC50: Human immunodeficiency virus 1, BAL, read-out: IC50 Cell-Free Virus BaL

Row | Compound | IC50 Cell-Associated Virus SupT1 (IIIB) [1] [µg/mL] | IC50 Cell-Free Virus IIIB [2] [µg/mL] | IC50 Cell-Free Virus BaL [3] [µg/mL] | EC50 Cell-free HIV-1 (IIIB) [2] [µg/mL] | EC50 [2] [µM] | also measured
1 | CCCCCCCCCCCCCCOC[C@H]1O[C@@H](n2cc(C)c(=O)[nH]c2=O)C[C@@H]1N=[N+]=[N-] [3′-azido-2′,3′-dideoxy-5′-O-(tetradecyl)thymidine] | >100 | 57.8 (≈ 125 µM) | 12.8 (≈ 27.6 µM) | – | – | –
2 | Sodium cellulose sulfate-succinate-AZT (17.2%) [CS-Suc-AZT] | – | – | – | – | – | EC50 Cell-Associated Virus SupT1-IIIB ([1]; Table 4): 74.8 µg/mL; EC50 Cell-Free Virus IIIB ([2]; Table 4): 2.2 µg/mL; EC50 Cell-Free Virus BaL ([3]; Table 4): 9.9 µg/mL
3 | CCCCCCCCCCCCCC(=O)OC[C@H]1O[C@@H](n2cc(C)c(=O)[nH]c2=O)C[C@@H]1N=[N+]=[N-] [3′-azido-2′,3′-dideoxy-5′-O-(tetradecanoyl)thymidine] | >100 | 1.5 (≈ 3.14 µM) | 2.4 (≈ 5.03 µM) | – | – | –
4 | Nc1nc(=O)n([C@H]2CS[C@@H](CO)O2)cc1F [2′,3′-dideoxy-5-fluoro-3′-thiacytidine, reference compound] | – | – | – | – | – | IC50 [1]: 21.9 µg/mL (≈ 88.6 µM); IC50 [2]: 0.48 µg/mL (≈ 1.94 µM); IC50 [3]: 0.18 µg/mL (≈ 0.728 µM)
5 | CCCCCSCCCCCCCC(=O)OC[C@H]1O[C@@H](n2cc(C)c(=O)[nH]c2=O)C[C@@H]1F [3′-fluoro-2′,3′-dideoxy-5′-O-(9-thiatertradecanoyl)thymidine] | >100 | 5.4 (≈ 11.4 µM) | 2.1 (≈ 4.44 µM) | – | – | –
6 | CCCCCCCCCCCCCCOC[C@H]1O[C@@H](n2cc(C)c(=O)[nH]c2=O)C[C@@H]1F [3′-fluoro-2′,3′-dideoxy-5′-O-(tetradecyl)thymidine] | >100 | 79.1 (≈ 180 µM) | 77.3 (≈ 175 µM) | – | – | –
7 | Cc1cn([C@H]2C=C[C@@H](COC(=O)CCCCCCCCCCCBr)O2)c(=O)[nH]c1=O [12-bromododecanoyl-2′,3′-didehydro-2′,3′-dideoxythymidine] | >100 | 7.2 (≈ 14.8 µM) | 1.1 (≈ 2.27 µM) | – | – | –
8 | CCSCCCCCCCCCCC(=O)OC[C@H]1O[C@@H](n2cc(C)c(=O)[nH]c2=O)C[C@@H]1N=[N+]=[N-] [3′-azido-2′,3′-dideoxy-5′-O-(11-thioethylundecanoyl)thymidine] | 44.9 (≈ 90.6 µM) | 3.8 (≈ 7.67 µM) | 2.6 (≈ 5.25 µM) | – | – | –
9 | Cc1cn([C@H]2C[C@H](N=[N+]=[N-])[C@@H](COC(=O)CCC(=O)OC[C@H]3O[C@@H](n4cc(C)c(=O)[nH]c4=O)C[C@@H]3N=[N+]=[N-])O2)c(=O)[nH]c1=O [KPH-913, AZT-succinate-AZT] | – | – | – | 8.6 (≈ 13.9 µM) | 13.9 | –
10 | CCCCCCCCCCCCCC(=O)Nc1ccn([C@H]2CS[C@@H](COC(=O)CCCCCCCCCCCCC)O2)c(=O)n1 [N4, 5′-O-dimyristoyl-2′,3′-dideoxy-3′-thiacytidine] | – | – | – | – | – | IC50 [1]: > 100 µg/mL; IC50 [2]: > 100 µg/mL; IC50 [3]: 87.8 µg/mL (≈ 135 µM)
11 | CCCCCCCCCCCCCC(=O)OC[C@H]1O[C@@H](n2ccc(N)nc2=O)CS1 [5′-O-tetradecanoyl-2′,3′-dideoxy-3′-thiacytidine] | – | – | – | – | – | IC50 [1]: 27.3 µg/mL (≈ 62.1 µM); IC50 [2]: 0.3 µg/mL (≈ 0.682 µM); IC50 [3]: 0.082 µg/mL (≈ 0.187 µM)
12 | CCSCCCCCCCCCCCC(=O)Nc1ccn([C@H]2CS[C@@H](CO)O2)c(=O)n1 [N4-(13-thiapentadecanoyl)-2′,3′-dideoxy-3′-thiacytidine] | – | – | – | – | – | IC50 [1]: > 100 µg/mL; IC50 [2]: 2.5 µg/mL (≈ 5.3 µM); IC50 [3]: 0.2 µg/mL (≈ 0.424 µM)
13 | Suramin-3′-azido-2′,3′-dideoxythymidine [Suramin-AZT] | – | – | – | – | – | EC50 Cell-Free Virus IIIB ([2]; Table 6): 19.4 µg/mL; EC50 Cell-Free Virus BaL ([3]; Table 6): 7.3 µg/mL
14 | Suramin-3′-fluoro-2′,3′-dideoxythymidine [Suramin-FLT] | – | – | – | – | – | EC50 Cell-Free Virus IIIB ([2]; Table 6): 23.6 µg/mL; EC50 Cell-Free Virus BaL ([3]; Table 6): 6.2 µg/mL
15 | CCSCCCCCCCCCCCC(=O)OC[C@H]1O[C@@H](n2cc(F)c(N)nc2=O)CS1 [5′-O-(13-thiapentadecanoyl)-2′,3′-dideoxy-5-fluoro-3′-thiacytidine] | – | – | – | – | – | IC50 [1]: 2.4 µg/mL (≈ 4.9 µM); IC50 [2]: 0.024 µg/mL (≈ 0.049 µM); IC50 [3]: 0.02 µg/mL (≈ 0.0408 µM)
16 | CCCCCCCCCCCCCC(=O)OC[C@@H]1C=C[C@H](n2cc(C)c(=O)[nH]c2=O)O1 [5′-O-myristoyl-2′,3′-didehydro-2′,3′-dideoxythymidine] | >100 | 34 (≈ 78.2 µM) | 5.4 (≈ 12.4 µM) | – | – | –
17 | Cc1cn([C@H]2C[C@H](F)[C@@H](COC(=O)CCCCCCCCCCCBr)O2)c(=O)[nH]c1=O [3′-fluoro-2′,3′-dideoxy-5′-O-(12-bromododecanoyl)thymidine] | >100 | 0.9 (≈ 1.78 µM) | <0.1 | – | – | –
18 | Cc1cn([C@H]2C[C@H](F)[C@@H](COC(=O)CCC(=O)OC[C@H]3O[C@@H](n4cc(C)c(=O)[nH]c4=O)C[C@@H]3F)O2)c(=O)[nH]c1=O [KPH-912, FLT-succinate-FLT] | – | – | – | 2.1 (≈ 3.68 µM) | 3.7 | –
19 | Cc1cn([C@H]2C[C@H](F)[C@@H](COC(=O)CCCCCCCCCCCN)O2)c(=O)[nH]c1=O [3′-fluoro-2′,3′-dideoxy-5′-O-(12-aminododecanoyl)thymidine] | – | 0.67 (≈ 1.52 µM) | – | – | – | –
20 | Cc1cn([C@H]2C[C@H](N=[N+]=[N-])[C@@H](COC(=O)CCC(NC(=O)CCC(=O)OC[C@H]3O[C@@H](n4cc(C)c(=O)[nH]c4=O)C[C@@H]3F)C(=O)OC[C@@H]3O[C@H](n4ccc(N)nc4=O)CS3)O2)c(=O)[nH]c1=O (some centres unmarked) [KPH-914, FLT-Succinate-AZT(glutamyl)-3TC] | – | – | – | 0.9 (≈ 0.964 µM) | 0.96 | –

Second part, led by results:

Row | IC50 Cell-Associated Virus SupT1 (IIIB) [1] [µg/mL] | IC50 Cell-Free Virus IIIB [2] [µg/mL] | IC50 Cell-Free Virus BaL [3] [µg/mL] | EC50 Cell-free HIV-1 (IIIB) [2] [µg/mL] | EC50 [2] [µM] | Compound | also measured
21 | – | – | – | 4.9 (≈ 5.99 µM) | 6 | CCCCCCCCCCCCCC(=O)NC(CCC(=O)OC[C@H]1O[C@@H](n2cc(C)c(=O)[nH]c2=O)C[C@@H]1N=[N+]=[N-])C(=O)OC[C@@H]1O[C@H](n2ccc(N)nc2=O)CS1 (some centres unmarked) [KPH-910] | –
22 | >100 | >100 | 49.1 (≈ 72.6 µM) | – | – | [N-]=[N+]=NCCCCCCCCCCCC(=O)Nc1ccn(C2CSC(COC(=O)CCCCCCCCCCCN=[N+]=[N-])O2)c(=O)n1 (centres unmarked) [N4, 5′-O-di(12-azidodecanoyl)-2′,3′-dideoxy-3′-thiacytidine] | –
23 | – | – | – | 7.8 (≈ 12 µM) | 12 | CC(=O)NC(CCC(=O)OC[C@H]1O[C@@H](n2cc(C)c(=O)[nH]c2=O)C[C@@H]1N=[N+]=[N-])C(=O)OC[C@@H]1O[C@H](n2ccc(N)nc2=O)CS1 (some centres unmarked) [KPH-911, AZT(Glutamyl)-3TC] | –
24 | – | – | – | 10.7 (≈ 17.1 µM) | 17.1 | CC(=O)NC(CCC(=O)OC[C@H]1O[C@@H](n2cc(C)c(=O)[nH]c2=O)C[C@@H]1F)C(=O)OC[C@@H]1O[C@H](n2ccc(N)nc2=O)CS1 (some centres unmarked) [KPH-96, FLT(Glutamyl)-3TC] | –
25 | – | – | – | 1.6 (≈ 2.01 µM) | 2 | CCCCCCCCCCCCCC(=O)NC(CCC(=O)OC[C@H]1O[C@@H](n2cc(C)c(=O)[nH]c2=O)C[C@@H]1F)C(=O)OC[C@@H]1O[C@H](n2ccc(N)nc2=O)CS1 (some centres unmarked) [KPH-97] | –
26 | – | – | – | 2.0 (≈ 2.4 µM) | 2.4 | CCCCCCCCCCCCCC(=O)NC(CCC(=O)OC[C@H]1O[C@@H](n2cc(C)c(=O)[nH]c2=O)C[C@@H]1F)C(=O)OC[C@H]1O[C@@H](n2cc(C)c(=O)[nH]c2=O)C[C@@H]1N=[N+]=[N-] (some centres unmarked) [KPH-99] | –
27 | – | – | – | 9.0 (≈ 13.5 µM) | 13.5 | CC(=O)NC(CCC(=O)OC[C@H]1O[C@@H](n2cc(C)c(=O)[nH]c2=O)C[C@@H]1F)C(=O)OC[C@H]1O[C@@H](n2cc(C)c(=O)[nH]c2=O)C[C@@H]1N=[N+]=[N-] (some centres unmarked) [KPH-98, FLT(Glutamyl)-AZT] | –
